Measured values from patent publication US20080249042A1, “All-Trans-Retinol: All-Trans-13,14-Dihydroretinol Saturase and Methods of Its Use” (UNIVERSITY OF WASHINGTON, priority 2004, published 2008).

How the values were obtained:
RAR/RXR heterodimers = assay: F9-RARE-lacZ DR5 RARE reporter cell assay; details: linear part of the dose-response curve
Method: RARE and RXRE Activation Assay. […] The RA-responsive F9 cell line was transfected with a reporter construct of an RARE derived from the human retinoic acid receptor-β gene (RAR-β) placed upstream of the Escherichia coli lacZ gene. […] Cells were grown in L15-CO2 media containing N-3 supplements and antibiotics. […] After 24 h, cells were split into 24-well plates to ensure an equal number of transfected cells in each assay well. Cells were stimulated with appropriate concentrations of all-trans-RA, 9-cis-RA, or all-trans-DRA. After 48 h, the expression of β-galactosidase was assayed as described above.

mouse RetSat = target: T1, mouse RetSat (Mus musculus, UniProt Q64FW2); assay: Saturase activity in homogenized HEKK-RetSat cells; type: biochemical; details: membrane homogenate, 40 μM substrate, 1 hr
T1 construct: expressed in transfected cells
T1 sequence (Q64FW2 26-609): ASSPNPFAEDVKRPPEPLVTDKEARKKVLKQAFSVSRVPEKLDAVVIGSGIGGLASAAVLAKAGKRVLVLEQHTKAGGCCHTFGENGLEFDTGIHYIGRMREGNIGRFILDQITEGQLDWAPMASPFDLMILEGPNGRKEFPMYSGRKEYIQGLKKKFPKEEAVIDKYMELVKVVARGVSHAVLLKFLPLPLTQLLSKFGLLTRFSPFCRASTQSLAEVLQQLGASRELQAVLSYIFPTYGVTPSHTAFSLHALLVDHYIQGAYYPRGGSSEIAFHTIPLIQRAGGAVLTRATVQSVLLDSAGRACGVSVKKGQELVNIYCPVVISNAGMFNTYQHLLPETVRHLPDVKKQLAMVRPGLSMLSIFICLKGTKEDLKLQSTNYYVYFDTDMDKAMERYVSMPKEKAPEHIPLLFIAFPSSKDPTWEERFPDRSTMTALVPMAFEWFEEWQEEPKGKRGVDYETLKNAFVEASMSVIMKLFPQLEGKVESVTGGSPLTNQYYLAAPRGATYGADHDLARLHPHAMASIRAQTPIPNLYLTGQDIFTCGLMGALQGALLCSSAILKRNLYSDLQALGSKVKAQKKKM
Method: Enzymatic assays for saturase activity in homogenized cells. Cells were homogenized with 15 mM Tris-HCl, pH 8.0, containing 10 mM dithiothreitol and 0.32 M sucrose. One aliquot of cells was boiled for 10 min at 95° C. as a negative control. Cell aliquots of 200 μl were supplemented with 1 mM ATP and 40 μM all-trans-retinol final concentrations. Some aliquots were also supplemented with 0.4 mM NADH or 0.4 mM NADPH to regenerate the redox state of the reaction. The cell homogenate was incubated with retinol substrate with shaking at 37° C. for 1 hr in the dark. This was followed by the extraction of retinoids with one volume of methanol and two volumes of hexane. The organic phase was dried and resuspended in hexane and then examined by normal-phase HPLC.

tomato CRTISO = target: T2, tomato CRTISO (Solanum lycopersicum, UniProt Q8S4R4); assay: CRTISO activity in transfected HEKK cells; type: cell-based; details: CRTISO-expressing cells, overnight, in the dark
T2 construct: expressed in transfected cells
T2 sequence (Q8S4R4 with tags, fused parts or gaps): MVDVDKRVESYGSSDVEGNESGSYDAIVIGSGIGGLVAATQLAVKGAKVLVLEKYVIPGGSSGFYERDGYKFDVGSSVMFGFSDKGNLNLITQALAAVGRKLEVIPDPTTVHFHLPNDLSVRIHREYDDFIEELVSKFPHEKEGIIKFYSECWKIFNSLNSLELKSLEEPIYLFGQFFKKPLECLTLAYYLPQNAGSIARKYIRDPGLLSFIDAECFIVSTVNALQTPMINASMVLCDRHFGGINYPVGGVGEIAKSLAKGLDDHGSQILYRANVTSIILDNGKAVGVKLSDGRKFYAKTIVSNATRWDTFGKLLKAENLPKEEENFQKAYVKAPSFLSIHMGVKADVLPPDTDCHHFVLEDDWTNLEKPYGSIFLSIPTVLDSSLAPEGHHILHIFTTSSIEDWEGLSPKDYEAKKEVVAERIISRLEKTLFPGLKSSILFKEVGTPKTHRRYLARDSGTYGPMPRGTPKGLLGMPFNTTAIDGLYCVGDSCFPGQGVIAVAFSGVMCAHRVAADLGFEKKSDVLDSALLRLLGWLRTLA
Method: 7Z,9Z,9′Z,7′Z-Tetra-cis-tycopene purification and reverse-phase HPLC analysis of carotenoids. Carotenoid extraction and analysis were performed under dim red light. One gram from the fruit of a tangerine tomato was freeze-thawed three times and extracted with 2 ml PBS, 2 ml of ethanol, and 6 ml of hexane with the aid of a douncer. The organic phase was dried and resuspended in ethanol/tetrahydrofuran (9:1), and examined by reverse-phase HPLC System I (Prontosil, 200-3-C30, 3 μm, 4.6 mm×250 mm, Bischoff Chromatography, Leonberg, Germany) with a mobile phase of 75% tert-butyl methyl ether/25% methanol and a flow rate of 1 ml/min. More than 90% of the extract consisted of 7Z,9Z,9′Z,7′Z-tetra-cis-lycopene identified based on its published UV/VIS absorption spectrum in hexane with the following characteristics: shoulder at λ=417 nm, ε=90,000 M^−1cm^−1, λmax=437 nm, ε=105,000 M−1 cm^−1, shoulder at λ=461 nm ε=70,000 M^−1cm^−1. Bradford, Anal Biochem 72:248-254, 1976.
Enzyme assays of RetSat and CRTISO-catalyzed reactions. For enzyme assay, cells were seeded in six-well plates and expression of RetSat or CRTISO was induced with 1 μg/ml tetracycline 48 hr prior to analysis. […] For retinol and dihydroretinol analysis the methanol:water mixture was extracted with two volumes of hexane, then the organic phase was dried, resuspended in hexane, and analyzed by normal-phase HPLC. […]

Structure (SMILES) | Fold less effective than all-trans-RA in activating DR5-response elements (RAR/RXR heterodimers) | all-trans-13,14-dihydroretinol produced (mouse RetSat) | Conversion by CRTISO (substrate activity) (tomato CRTISO)
CC1=C(/C=C/C(C)=C/C=C/C(C)CC(=O)O)C(C)(C)CCC1 (stereo not drawn) [all-trans-DRA, all-trans-13,14-dihydroretinoic acid] | about 100 fold |  | 
CC1=C(/C=C/C(C)=C/C=C/C(C)=C/CO)C(C)(C)CCC1 [all-trans-ROL, all-trans-retinol] |  | little | no saturase activity
